Where a name gives a salt, the structure may show the parent alone.
Experiments:
[1] = target: T1, Histone-lysine N-methyltransferase, H3 lysine-36 specific (Homo sapiens, UniProt Q96L73); test: Binding affinity to NSD1 (unknown origin) assessed as dissociation constant by ITC assay
[2] = target: T1, Histone-lysine N-methyltransferase, H3 lysine-36 specific; test: Inhibition of human recombinant NSD1 incubated for 2 hrs by AlphaLISA method
[3] = Inhibition of N-terminal hexa-histidine tagged NSD3 SET domain (1066 to 1288 residues) (unknown origin) expressed in Escherichia coli incubated for 4 hrs by ITC method; design: species or system Homo sapiens
[4] = target: T2, Histone-lysine N-methyltransferase NSD2 (Homo sapiens) (UniProt O96028); test: Inhibition of NSD2 (unknown origin) at 50 uM relative to control
T2 sequence (whole entry): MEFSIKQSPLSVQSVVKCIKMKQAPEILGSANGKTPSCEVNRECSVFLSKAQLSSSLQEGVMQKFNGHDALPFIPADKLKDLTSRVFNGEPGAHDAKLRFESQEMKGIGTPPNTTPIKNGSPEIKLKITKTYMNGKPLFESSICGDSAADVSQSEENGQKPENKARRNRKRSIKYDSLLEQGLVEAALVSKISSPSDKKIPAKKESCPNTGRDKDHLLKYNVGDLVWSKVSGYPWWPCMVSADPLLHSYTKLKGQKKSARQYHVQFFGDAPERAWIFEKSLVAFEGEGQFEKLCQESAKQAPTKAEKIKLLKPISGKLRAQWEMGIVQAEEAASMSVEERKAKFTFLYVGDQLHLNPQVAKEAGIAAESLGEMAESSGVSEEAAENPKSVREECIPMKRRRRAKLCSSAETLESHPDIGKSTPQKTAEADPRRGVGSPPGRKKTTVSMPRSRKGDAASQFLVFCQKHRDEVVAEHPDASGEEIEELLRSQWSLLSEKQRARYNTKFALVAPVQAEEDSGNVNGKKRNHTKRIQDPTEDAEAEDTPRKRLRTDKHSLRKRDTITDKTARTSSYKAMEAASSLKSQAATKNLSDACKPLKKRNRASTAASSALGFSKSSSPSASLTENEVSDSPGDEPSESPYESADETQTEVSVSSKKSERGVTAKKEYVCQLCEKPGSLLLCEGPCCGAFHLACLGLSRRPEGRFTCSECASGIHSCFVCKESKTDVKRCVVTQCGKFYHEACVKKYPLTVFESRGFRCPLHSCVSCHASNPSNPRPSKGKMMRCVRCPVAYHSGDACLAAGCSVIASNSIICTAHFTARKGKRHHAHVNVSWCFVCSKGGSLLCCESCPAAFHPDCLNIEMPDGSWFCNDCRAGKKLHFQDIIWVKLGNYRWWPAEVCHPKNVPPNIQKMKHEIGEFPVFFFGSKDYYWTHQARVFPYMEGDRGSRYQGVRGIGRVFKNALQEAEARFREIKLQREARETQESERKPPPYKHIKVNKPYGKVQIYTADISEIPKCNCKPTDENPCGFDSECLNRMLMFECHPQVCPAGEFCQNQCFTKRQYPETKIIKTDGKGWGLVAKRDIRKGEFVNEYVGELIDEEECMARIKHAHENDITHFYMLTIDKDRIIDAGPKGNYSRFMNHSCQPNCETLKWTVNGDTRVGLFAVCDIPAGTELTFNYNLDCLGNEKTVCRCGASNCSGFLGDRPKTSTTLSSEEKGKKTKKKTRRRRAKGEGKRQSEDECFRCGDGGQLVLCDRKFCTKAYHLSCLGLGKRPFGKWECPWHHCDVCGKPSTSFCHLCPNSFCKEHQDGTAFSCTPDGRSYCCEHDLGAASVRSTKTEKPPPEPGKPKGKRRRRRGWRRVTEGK

[5] = target: T1, Histone-lysine N-methyltransferase, H3 lysine-36 specific; test: Inhibition of human recombinant NSD1 ([…] residues) expressed in Escherichia coli BL21 (DE3) incubated for 4 hrs by scintillation/filter assay
[6] = target: T3, Histone-lysine N-methyltransferase NSD3 (Homo sapiens, UniProt Q9BZ95); test: Inhibition of human recombinant NSD3 ([…] residues) expressed in Escherichia coli BL21 (DE3) incubated for 4 hrs by scintillation/filter assay
T3 sequence (Q9BZ95 whole entry): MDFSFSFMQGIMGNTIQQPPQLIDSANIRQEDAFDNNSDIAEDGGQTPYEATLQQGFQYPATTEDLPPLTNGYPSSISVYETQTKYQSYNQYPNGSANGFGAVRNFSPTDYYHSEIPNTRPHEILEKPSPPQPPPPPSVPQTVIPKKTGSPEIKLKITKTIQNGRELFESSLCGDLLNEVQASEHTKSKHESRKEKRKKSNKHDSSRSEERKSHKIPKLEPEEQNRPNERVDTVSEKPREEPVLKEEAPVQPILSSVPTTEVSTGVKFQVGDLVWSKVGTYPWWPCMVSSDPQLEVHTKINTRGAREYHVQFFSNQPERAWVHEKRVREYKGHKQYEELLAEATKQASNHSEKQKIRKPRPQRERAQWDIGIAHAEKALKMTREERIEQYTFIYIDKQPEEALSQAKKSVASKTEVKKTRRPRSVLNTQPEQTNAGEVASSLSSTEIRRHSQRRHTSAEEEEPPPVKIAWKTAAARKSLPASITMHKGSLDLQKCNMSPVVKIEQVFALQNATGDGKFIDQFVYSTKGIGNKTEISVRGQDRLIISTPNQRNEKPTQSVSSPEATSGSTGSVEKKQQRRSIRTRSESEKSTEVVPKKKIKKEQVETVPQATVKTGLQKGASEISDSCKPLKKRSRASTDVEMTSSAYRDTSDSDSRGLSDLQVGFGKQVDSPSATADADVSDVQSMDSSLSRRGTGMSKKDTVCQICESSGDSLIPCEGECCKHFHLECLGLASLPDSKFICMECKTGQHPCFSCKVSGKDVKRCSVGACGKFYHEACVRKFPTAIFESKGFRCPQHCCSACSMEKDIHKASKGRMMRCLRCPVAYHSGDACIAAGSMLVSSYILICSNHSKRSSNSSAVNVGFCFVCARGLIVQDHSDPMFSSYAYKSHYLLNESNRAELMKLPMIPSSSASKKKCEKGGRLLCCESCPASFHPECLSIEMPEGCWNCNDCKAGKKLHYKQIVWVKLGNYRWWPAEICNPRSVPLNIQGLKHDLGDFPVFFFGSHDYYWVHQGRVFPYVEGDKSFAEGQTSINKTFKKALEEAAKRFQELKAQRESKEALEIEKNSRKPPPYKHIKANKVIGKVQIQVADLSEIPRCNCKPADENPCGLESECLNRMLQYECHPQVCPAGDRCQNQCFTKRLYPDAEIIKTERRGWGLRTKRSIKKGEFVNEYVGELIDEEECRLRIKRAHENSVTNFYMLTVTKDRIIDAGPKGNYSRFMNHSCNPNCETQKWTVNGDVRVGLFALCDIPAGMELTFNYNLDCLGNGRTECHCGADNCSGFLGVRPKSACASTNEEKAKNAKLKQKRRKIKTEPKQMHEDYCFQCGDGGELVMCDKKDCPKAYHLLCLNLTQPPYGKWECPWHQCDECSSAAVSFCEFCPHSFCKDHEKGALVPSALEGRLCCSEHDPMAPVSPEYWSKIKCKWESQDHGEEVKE

[7] = target: T2, Histone-lysine N-methyltransferase NSD2 (Homo sapiens); test: Induction of degradation of NSD2 in human U2OS cells assessed as maximum degradation relative to control; format: cell-based
[8] = target: T4, Histone-lysine N-methyltransferase NSD2 (Homo sapiens, UniProt O96028); test: Induction of degradation of NSD2 in human U2OS cells; format: cell-based
T4 sequence (O96028 whole entry): T2 sequence (whole entry)

[9] = target: T3, Histone-lysine N-methyltransferase NSD3; test: Antagonist activity against recombinant human GST-tagged NSD3 PWWP1 domain (247 to 398 residues) expressed in Escherichia coli BL21(DE3) incubated for 60 mins by TR-FRET assay
[10] = tested on: Respiratory syncytial virus; test: Antiviral activity against RSV assessed as viral growth inhibition; format: functional, organism-based; conditions: human respiratory syncytial virus
[11] = target: T4, Histone-lysine N-methyltransferase NSD2; test: Binding affinity to NSD2 PWWP1 domain (unknown origin) assessed as dissociation constant

T1 sequence (Q96L73 whole entry): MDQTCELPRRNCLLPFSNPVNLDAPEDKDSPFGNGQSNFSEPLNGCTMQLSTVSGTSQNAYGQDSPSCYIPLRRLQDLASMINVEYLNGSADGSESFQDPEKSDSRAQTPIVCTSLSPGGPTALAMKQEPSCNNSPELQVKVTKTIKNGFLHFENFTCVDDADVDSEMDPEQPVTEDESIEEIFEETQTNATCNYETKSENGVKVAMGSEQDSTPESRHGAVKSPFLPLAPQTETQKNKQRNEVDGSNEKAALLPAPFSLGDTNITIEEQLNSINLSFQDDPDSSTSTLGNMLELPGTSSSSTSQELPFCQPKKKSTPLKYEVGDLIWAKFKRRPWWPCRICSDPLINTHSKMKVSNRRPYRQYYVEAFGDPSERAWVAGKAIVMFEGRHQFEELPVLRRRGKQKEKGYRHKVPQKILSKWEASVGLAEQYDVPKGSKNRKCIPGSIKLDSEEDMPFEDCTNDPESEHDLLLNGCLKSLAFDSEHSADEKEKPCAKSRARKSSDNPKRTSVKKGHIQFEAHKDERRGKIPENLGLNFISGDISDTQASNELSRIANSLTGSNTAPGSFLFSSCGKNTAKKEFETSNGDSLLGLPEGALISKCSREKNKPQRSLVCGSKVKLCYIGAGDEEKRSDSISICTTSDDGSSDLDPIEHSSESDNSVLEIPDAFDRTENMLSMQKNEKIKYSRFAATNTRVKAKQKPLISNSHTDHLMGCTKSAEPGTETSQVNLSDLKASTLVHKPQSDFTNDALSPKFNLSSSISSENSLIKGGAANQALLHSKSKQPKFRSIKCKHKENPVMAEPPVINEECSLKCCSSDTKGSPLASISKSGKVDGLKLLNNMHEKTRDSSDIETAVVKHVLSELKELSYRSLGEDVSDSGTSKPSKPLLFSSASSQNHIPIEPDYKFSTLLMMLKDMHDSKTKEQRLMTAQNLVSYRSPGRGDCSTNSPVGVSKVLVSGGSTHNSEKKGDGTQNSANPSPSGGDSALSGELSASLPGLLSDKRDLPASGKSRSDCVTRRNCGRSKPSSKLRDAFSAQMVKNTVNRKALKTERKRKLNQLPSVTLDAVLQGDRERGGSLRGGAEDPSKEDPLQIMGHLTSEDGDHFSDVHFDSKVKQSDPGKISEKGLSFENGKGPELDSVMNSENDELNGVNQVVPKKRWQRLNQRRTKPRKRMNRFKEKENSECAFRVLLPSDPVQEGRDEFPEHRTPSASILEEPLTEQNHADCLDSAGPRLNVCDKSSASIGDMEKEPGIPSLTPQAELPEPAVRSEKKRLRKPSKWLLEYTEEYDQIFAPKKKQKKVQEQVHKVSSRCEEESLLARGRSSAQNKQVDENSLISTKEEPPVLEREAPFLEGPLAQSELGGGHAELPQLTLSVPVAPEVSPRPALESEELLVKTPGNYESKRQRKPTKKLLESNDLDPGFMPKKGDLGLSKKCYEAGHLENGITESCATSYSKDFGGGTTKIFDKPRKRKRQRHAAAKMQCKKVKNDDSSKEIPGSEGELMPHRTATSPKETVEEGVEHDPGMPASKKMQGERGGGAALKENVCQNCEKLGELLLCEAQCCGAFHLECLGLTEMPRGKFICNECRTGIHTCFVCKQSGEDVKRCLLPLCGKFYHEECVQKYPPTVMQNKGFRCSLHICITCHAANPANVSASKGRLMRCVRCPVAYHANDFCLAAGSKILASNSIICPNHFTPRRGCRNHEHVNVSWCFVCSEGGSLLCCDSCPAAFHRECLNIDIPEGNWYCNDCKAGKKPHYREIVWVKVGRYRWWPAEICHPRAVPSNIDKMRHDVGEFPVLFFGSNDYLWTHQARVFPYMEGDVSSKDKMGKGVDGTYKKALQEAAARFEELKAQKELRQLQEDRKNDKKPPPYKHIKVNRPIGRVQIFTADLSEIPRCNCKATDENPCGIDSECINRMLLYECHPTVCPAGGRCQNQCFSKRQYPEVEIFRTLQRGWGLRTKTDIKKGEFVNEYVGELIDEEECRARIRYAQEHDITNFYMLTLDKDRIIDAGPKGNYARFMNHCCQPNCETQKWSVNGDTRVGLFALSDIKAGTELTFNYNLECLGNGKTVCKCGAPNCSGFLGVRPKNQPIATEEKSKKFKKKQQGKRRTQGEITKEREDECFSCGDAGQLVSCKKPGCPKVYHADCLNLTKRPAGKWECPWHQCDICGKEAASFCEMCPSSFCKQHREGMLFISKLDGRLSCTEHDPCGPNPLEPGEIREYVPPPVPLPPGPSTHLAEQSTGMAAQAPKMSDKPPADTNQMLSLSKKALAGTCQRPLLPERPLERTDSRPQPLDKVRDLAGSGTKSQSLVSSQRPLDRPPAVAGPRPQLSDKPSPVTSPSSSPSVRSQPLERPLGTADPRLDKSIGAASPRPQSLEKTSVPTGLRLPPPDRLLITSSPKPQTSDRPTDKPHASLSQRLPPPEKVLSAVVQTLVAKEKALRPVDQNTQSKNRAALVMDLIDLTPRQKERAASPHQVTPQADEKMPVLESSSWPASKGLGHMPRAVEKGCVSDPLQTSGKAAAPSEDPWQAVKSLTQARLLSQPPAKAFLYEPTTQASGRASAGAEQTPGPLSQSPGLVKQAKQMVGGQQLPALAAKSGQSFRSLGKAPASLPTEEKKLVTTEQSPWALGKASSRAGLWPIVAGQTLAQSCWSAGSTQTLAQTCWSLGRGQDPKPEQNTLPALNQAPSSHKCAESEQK

## CCN(CC)CCCC(C)Nc1c2ccc(Cl)cc2nc2ccc(OC)cc12 (stereo unspecified) [QUINACRINE DIHYDROCHLORIDE]
[1]
  Kd: 1.4 µM

## COC[C@@]1(N)CCCN(c2cnc(-c3ccc(F)c(F)c3)cc2Cn2cnc3c(N)ncnc32)C1
[2]
  IC50: 0.16 µM

## CC1CN1c1cc(O)c2nc(N)sc2c1 (stereo unspecified)
[3]
  IC50: 14.3 µM

## C=CC(=O)Nc1cc(NC(=O)Nc2ccc3nnsc3c2)cc(C(=O)OC)c1
[4]
  inhibition: 92%

## CCN(CC)CCCC(C)Nc1ccnc2cc(Cl)ccc12 (stereo unspecified) [CHLOROQUINE PHOSPHATE]
[1]
  Kd: 4.7 µM

## Nc1ncnc2c1ncn2Cc1cc(-c2ccc(F)c(F)c2)ncc1N1CCC[C@](N)(COC2CC2)C1
[2]
  IC50: 0.214 µM

## O=C1c2c(O)ccc(O)c2C(=O)C2C(NCCNCCO)=CC=C(NCCNCCO)C12 (stereo unspecified)
[1]
  Kd: 1.2 µM

## N#Cc1cccc(NC(=O)Nc2ccc3nnsc3c2)c1
[4]
  inhibition: 92%

## COc1cc2nc(N3CCCN(C)CC3)nc(NC3CCN(Cc4ccccc4)CC3)c2cc1OC
[5]
  IC50: 112 µM
[6]
  IC50: 95 µM

## O=C(Nc1cccc([N+](=O)[O-])c1)Nc1ccc2nnsc2c1
[4]
  inhibition: 96%

## NCCCCCCNC(=O)c1ccc(NC(=O)c2ccc(CN(C(=O)c3ccc4c(c3)OCC(=O)N4)C3CC3)cc2)cc1
[7]
  Emax: 79%
[8]
  EC50: 0.35 µM

## Cc1cc(CN2CCC(N)CC2)cc(C)c1-c1ncn(C)c1-c1ccc(C#N)c2ccccc12
[9]
  IC50: 0.11 µM
[10]
  IC50: 6.3 µM

## O=C1COc2cc(C(=O)N(Cc3cccs3)C3CC3)ccc2N1
[11]
  Kd: 3.4 µM
